Target: hMC2 receptor (Homo sapiens, UniProt Q01718)
Test: hMC2 membrane binding assay ([125I]ACTH (1-39) Tyr23, SPA)
Set-up: scale not given here
Settings: crude hMC2R membranes from CRE-bla-CHO-K1 cells expressing hMC2 receptor and hMRAP; [125I]ACTH (1-39) Tyr23 0.2 nM; 1.5 hours at room temperature; read-out: MC2R binding potency
Summary of the method: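 Ki comes from non-linear regression of SPA scintillation counts. Displacement of 0.2 nM [125I]ACTH(1-39) Tyr23 by compound dose series (usually 0–10,000 nM final) ran 1.5 h at room temperature. Membranes came from CHO-K1 CRE-bla cells stably expressing hMC2R plus hMRAP, bead-coupled in pH 7.4 buffer with 0.2% BSA.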

hMC2 receptor, sequence (Q01718 whole entry): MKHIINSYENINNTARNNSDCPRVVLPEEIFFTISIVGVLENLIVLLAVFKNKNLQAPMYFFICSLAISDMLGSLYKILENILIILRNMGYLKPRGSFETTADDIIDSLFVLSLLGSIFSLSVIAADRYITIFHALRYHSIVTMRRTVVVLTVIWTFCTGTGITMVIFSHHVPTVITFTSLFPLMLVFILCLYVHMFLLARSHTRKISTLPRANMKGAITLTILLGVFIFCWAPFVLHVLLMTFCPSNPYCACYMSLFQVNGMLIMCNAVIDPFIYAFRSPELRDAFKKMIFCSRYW
hMC2 receptor, sequence (Q8TCY5 whole entry partner): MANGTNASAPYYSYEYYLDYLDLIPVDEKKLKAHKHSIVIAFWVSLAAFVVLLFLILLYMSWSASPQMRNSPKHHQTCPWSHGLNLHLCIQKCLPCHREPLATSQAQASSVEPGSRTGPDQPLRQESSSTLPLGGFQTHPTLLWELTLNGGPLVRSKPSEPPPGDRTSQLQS

Compound | Ki [nM]
CCOc1ncccc1-c1ccc(N2CCN(C(=O)c3ccc(Cl)cc3C(F)(F)F)C[C@H]2CC)c(C(=O)NC2CN(C)C2)n1 [Compound 1-212, 5-[(2R)-4-[4-chloro-2-(trifluoromethyl)benzoyl]-2-ethylpiperazin-1-yl]-2′-ethoxy-N-(1-methylazetidin-3-yl)-[2,3′-bipyridine]-6-carboxamide] | < 10
CCOc1ncccc1-c1ccc(N2CCN(C(=O)c3ccc(Cl)cc3C(F)F)C[C@H]2CC)c(C(=O)NCCNC)n1 [Compound 1-213, 5-[(2R)-4-[4-chloro-2-(difluoromethyl)benzoyl]-2-ethylpiperazin-1-yl]-2′-ethoxy-N-[2-(methylamino)ethyl]-[2,3′-bipyridine]-6-carboxamide] | < 10
CCOc1ncccc1-c1ccc(N2CCN(C(=O)c3ccc(Cl)cc3C(F)(F)F)C[C@H]2CC)c(C(=O)N[C@H]2CCNC2)n1 [Compound 1-214, 5-[(2R)-4-[4-chloro-2-(trifluoromethyl)benzoyl]-2-ethylpiperazin-1-yl]-2′-ethoxy-N-[(3S)-pyrrolidin-3-yl]-[2,3′-bipyridine]-6-carboxamide] | < 10
CCOc1ncccc1-c1ccc(N2CCN(C(=O)c3ccc(Cl)cc3C(F)(F)F)C[C@H]2CC)c(C(=O)N[C@H]2CCN(C)C2)n1 [Compound 1-215, 5-[(2R)-4-[4-chloro-2-(trifluoromethyl)benzoyl]-2-ethylpiperazin-1-yl]-2′-ethoxy-N-[(3S)-1-methylpyrrolidin-3-yl]-[2,3′-bipyridine]-6-carboxamide] | < 10
CCOc1ncccc1-c1ccc(N2CCN(C(=O)c3ccc(Cl)cc3C(F)(F)F)C[C@H]2CC)c(C(=O)NC2CN(C)C2)c1 [Compound 1-216, 2-[(2R)-4-[4-chloro-2-(trifluoromethyl)benzoyl]-2-ethylpiperazin-1-yl]-5-(2-ethoxypyridin-3-yl)-N-(1-methylazetidin-3-yl)benzamide] | < 10
CCOc1ncccc1-c1ccc(N2CCN(C(=O)c3ccc(Cl)cc3C(F)(F)F)C[C@H]2CC)c(C(=O)NCCC2=NCCN2)c1F [Compound 1-219, 6-[(2R)-4-[4-chloro-2-(trifluoromethyl)benzoyl]-2-ethylpiperazin-1-yl]-N-[2-(4,5-dihydro-1H-imidazol-2-yl)ethyl]-3-(2-ethoxypyridin-3-yl)-2-fluorobenzamide] | < 10
CCOc1ccccc1-c1ccc(N2CCN(C(=O)c3ccc(Cl)cc3C(F)(F)F)C[C@H]2CC)c(C(=O)NC2CNC2)n1 [Compound 1-220, N-(azetidin-3-yl)-3-[(2R)-4-[4-chloro-2-(trifluoromethyl)benzoyl]-2-ethylpiperazin-1-yl]-6-(2-ethoxyphenyl)pyridine-2-carboxamide] | < 10
CCOc1ccccc1-c1ccc(N2CCN(C(=O)c3ccc(Cl)cc3C(F)(F)F)C[C@H]2CC)c(C(=O)NC2CN(C)C2)n1 [Compound 1-221, 3-[(2R)-4-[4-chloro-2-(trifluoromethyl)benzoyl]-2-ethylpiperazin-1-yl]-6-(2-ethoxyphenyl)-N-(1-methylazetidin-3-yl)pyridine-2-carboxamide] | < 10
CCOc1ncccc1-c1ccc(N2CCN(C(=O)c3ccc(Cl)cc3C(F)(F)F)C[C@H]2CC)c(C(=O)NCC2CNC2)n1 [Compound 1-222, N-[(azetidin-3-yl)methyl]-5-[(2R)-4-[4-chloro-2-(trifluoromethyl)benzoyl]-2-ethylpiperazin-1-yl]-2′-ethoxy-[2,3′-bipyridine]-6-carboxamide] | < 10
CCOc1ncccc1-c1ccc(N2CCN(C(=O)c3ccc(Cl)cc3C(F)(F)F)C[C@H]2CC)c(C(=O)NCC2CN(C)C2)n1 [Compound 1-223, 5-[(2R)-4-[4-chloro-2-(trifluoromethyl)benzoyl]-2-ethylpiperazin-1-yl]-2′-ethoxy-N-[(1-methylazetidin-3-yl)methyl]-[2,3′-bipyridine]-6-carboxamide] | < 10
CCOc1ncccc1-c1ccc(N2CCN(C(=O)c3ccc(F)cc3C(F)(F)F)C[C@H]2CC)c(C(=O)NCCc2ncc[nH]2)n1 [Compound 1-224, 2′-ethoxy-5-[(2R)-2-ethyl-4-[4-fluoro-2-(trifluoromethyl)benzoyl]piperazin-1-yl]-N-[2-(1H-imidazol-2-yl)ethyl]-[2,3′-bipyridine]-6-carboxamide] | < 10
CCNc1ccc(C(=O)N2CCN(c3ccc(-c4cccnc4OCC)nc3C(=O)NCCNC)[C@H](CC)C2)c(C(F)(F)F)n1 [Compound 1-225, 2′-ethoxy-5-[(2R)-2-ethyl-4-[6-(ethylamino)-2-(trifluoromethyl)pyridine-3-carbonyl]piperazin-1-yl]-N-[2-(methylamino)ethyl]-[2,3′-bipyridine]-6-carboxamide] | < 10
CCOc1ncccc1-c1ccc(N2CCN(C(=O)c3ccc(Cl)cc3C(F)(F)F)C[C@H]2CC)c(C(=O)NCC2=NCCN2)n1 [Compound 1-226, 5-[(2R)-4-[4-chloro-2-(trifluoromethyl)benzoyl]-2-ethylpiperazin-1-yl]-N-[(4,5-dihydro-1H-imidazol-2-yl)methyl]-2′-ethoxy-[2,3′-bipyridine]-6-carboxamide] | < 10
CCOc1ncccc1-c1ccc(N2CCN(C(=O)c3ccc(Cl)cc3C(F)(F)F)C[C@H]2CC)c(C(=O)NCC2=NCCN2C)n1 [Compound 1-227, 5-[(2R)-4-[4-chloro-2-(trifluoromethyl)benzoyl]-2-ethylpiperazin-1-yl]-2′-ethoxy-N-[(1-methyl-4,5-dihydro-1H-imidazol-2-yl)methyl]-[2,3′-bipyridine]-6-carboxamide] | < 10
CCOc1ncccc1-c1ccc(N2CCN(C(=O)c3ccc(Cl)cc3C(F)(F)F)C[C@H]2CC)c(C(=O)NC[C@H]2CCN2C)c1 [Compound 1-228, 2-[(2R)-4-[4-chloro-2-(trifluoromethyl)benzoyl]-2-ethylpiperazin-1-yl]-5-(2-ethoxypyridin-3-yl)-N-{[(2R)-1-methylazetidin-2-yl]methyl}benzamide] | < 10
CCOc1ncccc1-c1ccc(N2CCN(C(=O)c3ccc(Cl)cc3C(F)(F)F)C[C@H]2CC)c(C(=O)NC[C@@H]2CCN2C)c1F [Compound 1-229, 6-[(2R)-4-[4-chloro-2-(trifluoromethyl)benzoyl]-2-ethylpiperazin-1-yl]-3-(2-ethoxypyridin-3-yl)-2-fluoro-N-{[(2S)-1-methylazetidin-2-yl]methyl}benzamide] | < 10
CCOc1ncccc1-c1ccc(N2CCN(C(=O)c3ccc(OC)nc3C(F)(F)F)C[C@H]2CC)c(C(=O)NC2CN(C)C2)n1 [Compound 1-230, 2′-ethoxy-5-[(2R)-2-ethyl-4-[6-methoxy-2-(trifluoromethyl)pyridine-3-carbonyl]piperazin-1-yl]-N-(1-methylazetidin-3-yl)-[2,3′-bipyridine]-6-carboxamide] | < 10
CCOc1ncccc1-c1ccc(N2CCN(C(=O)c3ccc(Cl)cc3C(F)(F)F)C[C@H]2CC)c(C(=O)NC[C@H]2CCN2C)n1 [Compound 1-231, 5-[(2R)-4-[4-chloro-2-(trifluoromethyl)benzoyl]-2-ethylpiperazin-1-yl]-2′-ethoxy-N-{[(2R)-1-methylazetidin-2-yl]methyl}-[2,3′-bipyridine]-6-carboxamide] | < 10
CCOc1ncccc1-c1ccc(N2CCN(C(=O)c3ccc(Cl)cc3C(F)(F)F)C[C@H]2CC)c(C(=O)NC[C@@H]2CCN2C)n1 [Compound 1-232, 5-[(2R)-4-[4-chloro-2-(trifluoromethyl)benzoyl]-2-ethylpiperazin-1-yl]-2′-ethoxy-N-{[(2S)-1-methylazetidin-2-yl]methyl}-[2,3′-bipyridine]-6-carboxamide] | < 10
CCOc1ccc(C(=O)N2CCN(c3ccc(-c4cccnc4OCC)nc3C(=O)NC3CN(C)C3)[C@H](CC)C2)c(C(F)(F)F)n1 [Compound 1-233, 2′-ethoxy-5-[(2R)-4-[6-ethoxy-2-(trifluoromethyl)pyridine-3-carbonyl]-2-ethylpiperazin-1-yl]-N-(1-methylazetidin-3-yl)-[2,3′-bipyridine]-6-carboxamide] | < 10
CCOc1ncccc1-c1ccc(N2CCN(C(=O)c3ccc(Cl)cc3C(F)(F)F)C[C@H]2CC)c(C(=O)NCCc2nccn2C)n1 [Compound 1-234, 5-[(2R)-4-[4-chloro-2-(trifluoromethyl)benzoyl]-2-ethylpiperazin-1-yl]-2′-ethoxy-N-[2-(1-methyl-1H-imidazol-2-yl)ethyl]-[2,3′-bipyridine]-6-carboxamide] | < 10
CCOc1ccccc1-c1ccc(N2CCN(C(=O)c3ccc(OC)nc3C(F)(F)F)C[C@H]2CC)c(C(=O)NC2CN(C)C2)n1 [Compound 1-236, 6-(2-ethoxyphenyl)-3-[(2R)-2-ethyl-4-[6-methoxy-2-(trifluoromethyl)pyridine-3-carbonyl]piperazin-1-yl]-N-(1-methylazetidin-3-yl)pyridine-2-carboxamide] | < 10
CCOc1ccc(C(=O)N2CCN(c3ccc(-c4ccccc4OCC)nc3C(=O)NC3CN(C)C3)[C@H](CC)C2)c(C(F)(F)F)n1 [Compound 1-237, 3-[(2R)-4-[6-ethoxy-2-(trifluoromethyl)pyridine-3-carbonyl]-2-ethylpiperazin-1-yl]-6-(2-ethoxyphenyl)-N-(1-methylazetidin-3-yl)pyridine-2-carboxamide] | < 10
CCOc1ncccc1-c1ccc(N2CCN(C(=O)C3C4CC5CC(C4)CC3C5)C[C@H]2CC)c(C(=O)NC2CN(C)C2)n1 (stereo partly drawn) [Compound 1-238, 5-[(2R)-4-(adamantane-2-carbonyl)-2-ethylpiperazin-1-yl]-2′-ethoxy-N-(1-methylazetidin-3-yl)-[2,3′-bipyridine]-6-carboxamide] | < 10
CCOc1ncccc1-c1ccc(N2CCN(C(=O)c3ccc(OC)nc3C(F)(F)F)C[C@H]2CC)c(C(=O)N[C@@H]2CCN(C)C2)n1 [Compound 1-239, 2′-ethoxy-5-[(2R)-2-ethyl-4-[6-methoxy-2-(trifluoromethyl)pyridine-3-carbonyl]piperazin-1-yl]-N-[(3R)-1-methylpyrrolidin-3-yl]-[2,3′-bipyridine]-6-carboxamide] | < 10

From US10981894B2, “Melanocortin subtype-2 receptor (MC2R) antagonists and uses thereof” (Crinetics Pharmaceuticals, Inc., priority 2018, dated 2021)
